Measured values from PubChem BioAssay AID1249 (Columbia University Molecular Screening Center, 2008).
Active and inactive are the calls of the source. The rule behind the calls is not given here.

Test system: not listed separately
Test: cellular cytoskeleton assembly phenotype modulators – imaging, high-content imaging, retest and dose response, confirmation (AID 1249);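 note: compound exposure lasted 24 h before fixation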;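 for inhibition: plate controls were untreated cells for no effect and reference compound treated cells for full effect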
Conditions: cell-based imaging, cytoskeleton assembly phenotype, high content; at 2 µM; stronger effect = higher value

SMILES	inhibition
CC1=NNC(=O)/C1=C\c1cn(-c2ccccc2)nc1-c1ccc(Cl)cc1	-11.5% (inactive)
CCn1c(Cc2ccccc2)nnc1SCC(=O)NC1CC1	10.7% (inactive)
COc1cccc(CNC(=O)C(=O)NCC2CCCO2)c1 (stereo not given)	-16.1% (inactive)
COc1ccc(S(=O)(=O)N2CCCC2C(=O)Nc2ccc(C)cc2)cc1 (stereo not given)	3.2% (inactive)
CCOC(=O)Cc1csc(NC(=O)COc2ccc(N(C)S(=O)(=O)c3ccc(C)cc3)cc2)n1	0% (inactive)
CN1C(=O)C(C(=O)NC(C)(C)C)C2c3ccccc3OC13CCCCC23 (stereo not given)	1.7% (inactive)
N#Cc1nc(-c2ccco2)oc1N1CCOCC1	3.4% (inactive)
COc1ccc(Oc2cc(NC(=O)c3nn(C)cc3[N+](=O)[O-])cc([N+](=O)[O-])c2)cc1	11.6% (inactive)
Cc1cc(C(=O)NN)c2cc(Br)ccc2n1	-2% (inactive)
OC1(c2cccc(C(F)(F)F)c2)CCN(c2ncnc3c2[nH]c2ccc(F)cc23)CC1	7.8% (inactive)
CCN1CCC2(CC1)C(C#N)=C(N)Oc1c2sc2nc(C)cc(C)c12	-0.7% (inactive)
CCCOc1ccc(C(=O)C(CN2CCOCC2)c2ccccc2)cc1 (stereo not given)	4.4% (inactive)
COc1ccc(-c2n[nH]c(=S)n2C2CCCCC2)cc1	5.3% (inactive)
CCOC(=O)c1ccc(NC(=O)Cn2nnc(-c3ccccc3)n2)cc1	1.3% (inactive)
Cc1cccc(C(=O)Oc2ccccc2C2C[C@]3(C)CC(=O)NC3N2C(=O)c2cccc(C)c2)c1 (stereo not given in full)	-5.8% (inactive)
COc1cc2c(cc1OC)CN(C(=O)C(C)(C)C)CC2	-1.3% (inactive)
O=c1[nH]c2cccnc2n1Cc1ccccc1	-3.8% (inactive)
CCOc1cc(C(=O)OCC(=O)c2c(C)[nH]c3ccccc23)ccc1OCC(=O)N1CCOCC1	-10.4% (inactive)
CSc1ccc(CNC2CN3CCC2CC3)cc1 (stereo not given)	1.5% (inactive)
CC1(C)OC(=O)C(=NNc2ccc(O)cc2)C(=O)O1	-11.1% (inactive)
O=C(COC(=O)C1c2ccccc2Oc2ccccc21)NC1CCS(=O)(=O)C1 (stereo not given)	-16.7% (inactive)
N/C(Cc1cccs1)=N\OC(=O)COc1ccc(Br)cc1Cl	-3.7% (inactive)
CCOc1ccc(NC(=O)C2CCN(C(=O)NC3CCCCC3)CC2)cc1	-1.9% (inactive)

SMILES	inhibition
O=C(O)Cc1ccc(NC(=O)C2CC=CCC2C(=O)O)cc1 (stereo not given)	-9.1% (inactive)
COc1ccc(C(=O)c2ccc(N(C)C)cc2)c2ccccc12	-3.3% (inactive)
COc1cc(/C=N/Nc2snc(SC)c2C#N)ccc1O	-6.6% (inactive)
Clc1ccc2nc(CSc3nc4ccccc4o3)cn2c1	14.4% (inactive)
O=C(Oc1csc(=S)n1C(=O)c1ccccc1)c1ccccc1	-3% (inactive)
CCNc1nc(OC)nc(Oc2ccc(C(=O)OC)cc2)n1	-22.8% (inactive)
COc1cc(/C=N/NC(=O)Nc2ccccc2)ccc1OCCOc1ccccc1C	3.1% (inactive)
Cc1cccc(NC(=O)Cn2nc(C(F)(F)F)cc2C2CC2)c1	-14.3% (inactive)
N#CCc1nc2c3c4c(sc3ncn2n1)CCCC4	-15.1% (inactive)
OC(c1ccccn1)c1c[nH]c2ccccc12 (stereo not given)	14.9% (inactive)
N#Cc1cc2c(nc1SCC(=O)N1CCCCC1)CCCC2	2.1% (inactive)
O=C(Cc1ccc(-n2cccc2)cc1)NC1CCCCCC1	-6.9% (inactive)
O=C(C1CCC1)N1CCc2cc(S(=O)(=O)Nc3ccc4c(c3)OCCO4)ccc21	3.8% (inactive)
Nc1ccccc1NC(=O)c1ccccc1N	3.6% (inactive)
CCOC(=O)c1[nH]c(C)c(C(=O)c2ccc(C)cc2)c1C	10.5% (inactive)
O=C(Nc1cnccn1)C1c2ccccc2Oc2ccccc21	9.9% (inactive)
COc1cc(CNCc2ccco2)ccc1OCc1ccccc1	-7.5% (inactive)
CCOC(=O)N1CCC(NC(=O)c2ccc(CNS(=O)(=O)c3ccc(F)cc3)cc2)CC1	-3.7% (inactive)
O=C(CN1CCC(c2nc3ccccc3s2)CC1)NCc1cccs1	4% (inactive)
COC(=O)CCC(=O)Nc1cccc(Br)c1	4.9% (inactive)
CCOc1ccc(C2/C(=C(\O)c3c(C)[nH]c(C(=O)OC)c3C)C(=O)C(=O)N2CCN(C)C)cc1 (stereo not given)	-9% (inactive)
O=C1C(Cc2ccccc2)NC(=S)N1c1ccccc1 (stereo not given)	3.1% (inactive)
Cc1cc(S(=O)(=O)NCCN2CCOCC2)c(C)s1	4.3% (inactive)

SMILES	inhibition
CCCNS(=O)(=O)c1ccc2c(c1)CCCN2C(C)=O	-1.4% (inactive)
CCN(CC)C(=O)CN(c1ccc(Cl)cc1)S(=O)(=O)c1ccccc1	0.4% (inactive)
Cc1ccc(C)c(NC(=S)NC(NC(=O)Cc2cccc3ccccc23)C(Cl)(Cl)Cl)c1 (stereo not given)	-16% (inactive)
OCCN=C(c1ccccc1)C12CN3CN(CN(C3)C1)C2	-2.8% (inactive)
CCCCN(C(=O)NC(=O)Nc1cccc(C)c1C)S(C)(=O)=O	1.6% (inactive)
COc1ccc(NC(=O)C(NC(=O)c2ccccc2)C(C)C)cc1 (stereo not given)	4.5% (inactive)
Cc1cc(C(=O)NN=C2C3CC4CC(C3)CC2C4)c2ccccc2n1	-3.8% (inactive)
CC(C)CN(C(=O)COC(=O)CCc1c[nH]c2ccccc12)C1CCS(=O)(=O)C1 (stereo not given)	-23.6% (inactive)
CC(C)(C)SCCNC(=O)CN(c1ccc(F)cc1)S(C)(=O)=O	-2.5% (inactive)
Cc1ccc(-c2nnc3ccc(SCC(=O)Nc4cc(C)on4)nn23)cc1	-5.1% (inactive)
COC(=O)c1cscc1NC(C)=O	13.2% (inactive)
Cc1ccc(C(=O)c2cc([N+](=O)[O-])ccc2N2CCOCC2)c(C)c1	3.2% (inactive)
Nc1nnc(SCC(=O)NCc2ccc3c(c2)OCO3)s1	3.6% (inactive)
COC(=O)CN(c1ccc(F)cc1)S(=O)(=O)c1ccc2c(c1)OCCO2	10.7% (inactive)
CCCCCCCC(=O)N/N=C(\C)c1cccnc1	2.2% (inactive)
Cc1ccc(O)c(NC(=O)C2CC(c3c(F)cccc3Cl)=NO2)c1 (stereo not given)	-4.4% (inactive)
CCOc1ccccc1N1C(=O)NC(=O)C(CCc2ccncc2)(CCc2ccncc2)C1=O	-4.8% (inactive)
Cc1cc(C)cc(OCCCCCNCCO)c1	-6.8% (inactive)
O=C(NCc1ccco1)C1CC(=O)N(c2ccc(F)cc2)C1 (stereo not given)	2.5% (inactive)
COc1cc(NC(=O)c2ccc(COCC(F)(F)F)o2)cc(OC)c1OC	5.2% (inactive)
COc1cc(C(=O)N2CCN(c3cc(Cl)ccc3Cl)CC2)cc(OC)c1OC	-2.9% (inactive)
Cc1cc(C)c(/C=N/NC(N)=O)c(C)c1/C=N/NC(N)=O	-10% (inactive)
CCN1CCN(CC(=O)Nc2nc3ccc(OC)cc3s2)CC1	-8.7% (inactive)

SMILES	inhibition
CCC1=NC(c2ccccc2Cl)N(O)C1(C)C (stereo not given)	7.9% (inactive)
CCOC(=O)c1cnn(-c2nc3c(C)cccc3s2)c1C	-1.2% (inactive)
Cc1cccc(NC(=O)CSc2nc3ccc(NC(=O)CSc4nnnn4-c4ccccc4)cc3s2)c1C	2.9% (inactive)
C/C(=C\C(=O)c1cccnc1)Nc1ccc(C)c(C)c1	1.3% (inactive)
NC(=S)N/N=C/c1ccc(-c2cc(Cl)ccc2Cl)o1	-7.4% (inactive)
Nc1nc2c3ccccc3nc(Cc3ccccc3)n2n1	3.4% (inactive)
O=S(=O)(Nc1ccc(-n2cccc2)cc1)c1ccccc1	0.5% (inactive)
NCCN1CCN(CCN)CC1	-3% (inactive)
Cc1cc(NC(=O)CSc2nc3ccccc3c(=O)n2C2CCCC2)no1	6.7% (inactive)
CCC(=O)Nc1nc(-c2ccccc2)ns1	-1.3% (inactive)
CCOc1ccc(N2C(=O)CSC2c2ccncc2)cc1 (stereo not given)	4.4% (inactive)
Cc1csc(NC(=O)CSc2nnc(-c3ccc(S(=O)(=O)N4CCCC4)cc3)o2)n1	4.6% (inactive)
N=C1C(c2nc3ccccc3s2)=C(O)CN1Cc1ccco1	5.2% (inactive)
CCCCCc1ccc(-c2ccc(=O)[nH]n2)cc1	-6.9% (inactive)
Cc1cc(C)cc(OCc2nnc(SCC(=O)N3CCN(c4ccccc4)CC3)o2)c1	-9.6% (inactive)
O=S(=O)(c1cccs1)N1CCN(CC(O)COc2cccc(Br)c2)CC1 (stereo not given)	5.3% (inactive)
CCCCOCCCNC(=O)c1cccs1	-7.7% (inactive)
O=C(NC(Cc1c[nH]c2ccccc12)C(=O)O)c1ccco1 (stereo not given)	-3% (inactive)
O=C1CC(c2ccccc2)Cc2nc3ncnn3cc21 (stereo not given)	2.1% (inactive)
CCC(C)Oc1cccc(OCCCCN2C(=O)NC(C)(C)C2=O)c1 (stereo not given)	-13.9% (inactive)
Cc1ccc(Cl)cc1N1CCN(C(c2cccnc2)c2nnnn2C2CCCCC2)CC1 (stereo not given)	12.1% (inactive)
Cc1cc(/C=C2\SC(=Nc3ccc(F)cc3)NC2=O)c(C)n1-c1ccc(S(N)(=O)=O)cc1	-17.9% (inactive)
CCCOC(=O)NC(CC)COC(=O)Nc1cccc(C)c1C (stereo not given)	-5% (inactive)

Same assay, conditions: cell-based imaging, cytoskeleton assembly phenotype, high content; cell count; at 10 µM; stronger effect = lower value

SMILES	cell count [%]
Cc1ccc(-c2nc(NC(=O)c3nn(C)cc3[N+](=O)[O-])sc2C)cc1C	88
CC(=O)Nc1ccc(S(=O)(=O)NC2(C(F)(F)F)C(=O)Nc3c2c(=O)[nH]c(=O)n3C)cc1 (stereo not given)	90.8
O=C(CS(=O)c1ccc(C(F)(F)F)cc1[N+](=O)[O-])Oc1ccccc1 (stereo not given)	94.1
COc1ccc(NS(=O)(=O)c2cc(C)ccc2NC(=O)c2cc(C)oc2C)cc1	52
O=C(COc1ccccc1-c1ccccc1)N/N=C/c1cccc2ccccc12	85
CCOc1ccc(C2=Nn3c(nnc3-c3ccccc3OC)SC2)cc1	36.3
Cc1cccc2cc(C#N)c(SCC(=O)N3CC(=O)Nc4ccccc43)nc12	67.8
COc1cc(C2C(C#N)=C(N)Oc3cc(N(C)C)ccc32)cc2c1OCO2 (stereo not given)	39.3

Test system: cell-based imaging, cytoskeleton assembly phenotype, high content
Test: as above
Conditions: not given

SMILES	IC50
Cc1ccc(-c2nc(NC(=O)c3nn(C)cc3[N+](=O)[O-])sc2C)cc1C	> 10 µM (inactive)
CC(=O)Nc1ccc(S(=O)(=O)NC2(C(F)(F)F)C(=O)Nc3c2c(=O)[nH]c(=O)n3C)cc1 (stereo not given)	> 10 µM (inactive)
O=C(CS(=O)c1ccc(C(F)(F)F)cc1[N+](=O)[O-])Oc1ccccc1 (stereo not given)	> 10 µM (inactive)
COc1ccc(NS(=O)(=O)c2cc(C)ccc2NC(=O)c2cc(C)oc2C)cc1	> 10 µM (inactive)
O=C(COc1ccccc1-c1ccccc1)N/N=C/c1cccc2ccccc12	> 10 µM (inactive)
